{"source": "patent US20230047393A1", "about": "(EWHA DrugDesignHouse Co.,Ltd., priority 2021, published 2023)", "key": {"[1]": {"assay": "Solubility of EW-7197 at various pH values", "format": "physicochemical", "conditions": "thermodynamic from solid", "description": "In order to use EW-7197 for treating or preventing TFG-β signaling related ocular diseases, postsurgical peritoneal adhesions, postsurgical anastomotic strictures, hypertrophic scar, or keloid in human, formulation development of an aqueous solution containing appropriate amounts of EW-7197 is needed."}, "[2]": {"assay": "Photostability of EW-7197 in buffer solutions (ultraviolet and visible light)", "format": "physicochemical", "conditions": "solution left in a room for a whole day under fluorescent lighting (about 1000 lx per hour)", "experimental": "The formulations used in the photostability test are the same formulations (excluding A13, A16, A19, and A22) used for evaluation of thermal stability shown in Table 4. After preparation, each formulation was filtered. About 3 mL of the filtrate was filled in a glass ampule, and illuminated with ultraviolet light of 50 W·h/m^2 and visible light of 300,000 lx·hr by a photostability test chamber. […] Generally, illumination under white fluorescent lighting is about 1000 lx per hour. […] Therefore, EW-7197 needs to be stored in light shielded conditions."}, "[3]": {"assay": "Solubility of EW-7197 with various solubilizing agents (4° C. and 25° C.)", "format": "physicochemical", "conditions": "for EW-7197 dissolved: 1% of each surfactant, boric acid/sodium borate pH7.5", "description": "The buffer solution used in this study was 0.9% boric acid/0.1% sodium borate (pH7.5). […] After confirming that the formulations were suspended at each temperature, each formulation was filtered."}, "[4]": {"assay": "Effect of metal ion on thermal stability of EW-7197 (40° C.)", "format": "physicochemical", "conditions": "100 ppm aluminum ions or iron ions, with or without EDTA, PE bottles", "experimental": "After the preparation of each formulation, the formulation was filtered. The filtrate was filled into a PE bottle, and stored in a thermostatic chamber (40° C.).\nIn this study, the final concentration of aluminum ions or iron ions was 100 ppm, and the PE ophthalmic bottles were used as containers."}, "[5]": {"assay": "Solubility of EW-7197 in PEG/poloxamer formulations (5° C. and 25° C.)", "format": "physicochemical", "conditions": "formulations containing 25% PEG4000 and 10% poloxamer 407", "experimental": "After confirming that the formulation was suspended at each temperature, the suspension was filtered. The EW-7197 content of the filtrate was measured by HPLC."}, "[6]": {"test_system": "liver of CCl4-treated mice", "conditions": "cited from earlier work"}, "[7]": {"test_system": "liver of bile duct ligated rats", "conditions": "cited from earlier work"}, "[8]": {"test_system": "lung of bleomycin-treated mice", "conditions": "cited from earlier work"}, "[9]": {"test_system": "kidney of mice with unilateral ureteral obstruction", "conditions": "cited from earlier work"}, "[10]": {"test_system": "rat esophagus", "conditions": "after SEMS placement in the rat esophagus; cited from earlier work"}, "[11]": {"test_system": "peritoneal adhesions rat model", "conditions": "dose-dependent; cited from earlier work"}, "[12]": {"test_system": "adhesion bands mouse model", "conditions": "cited from earlier work"}, "[13]": {"test_system": "mouse model of ulcerative colitis", "conditions": "cited from earlier work"}, "[14]": {"test_system": "mouse B16 melanoma model", "conditions": "cited from earlier work"}, "[15]": {"test_system": "MMTV/c-Neu mice", "conditions": "cited from earlier work"}, "[16]": {"test_system": "4T1 orthotopic-grafted mice", "conditions": "cited from earlier work"}, "[17]": {"test_system": "MDA-MB-231-xenografted mouse model", "conditions": "cited from earlier work"}, "[18]": {"test_system": "CML-affected mice", "conditions": "combined with ponatinib, compared to ponatinib alone; cited from earlier work"}, "[19]": {"test_system": "Col8a2 knock-in mice", "conditions": "cited from earlier work"}}, "note": "Like-named read-outs stand apart in the source and are kept apart here.", "data": [{"smiles": "Cc1cccc(-c2[nH]c(CNc3ccccc3F)nc2-c2ccc3ncnn3c2)n1", "note": "[EW-7197, 2-fluoro-N-((5-(6-methylpyridin-2-yl)-4-([1,2,4]triazolo[1,5-a]pyridin-6-yl)-1H-imidazol-2-yl)methyl)aniline]", "values": [{"measurement": "solubility", "setting": "[1]; 0.1N NaOH, pH 12.86, aqueous buffer, pH 12.86, 0.1N NaOH, pH after equilibration 12.53, read-out: Solubility Average (n = 2)", "result": 437, "unit": "µg/mL"}, {"measurement": "solubility", "setting": "[1]; 0.1N NaOH, pH 12.86, aqueous buffer, pH 12.86, 0.1N NaOH, pH after equilibration 12.53, read-out: Solubility Trial 1", "result": 396, "unit": "µg/mL"}, {"measurement": "solubility", "setting": "[1]; 0.1N NaOH, pH 12.86, aqueous buffer, pH 12.86, 0.1N NaOH, pH after equilibration 12.53, read-out: Solubility Trial 2", "result": 478, "unit": "µg/mL"}, {"measurement": "solubility", "setting": "[1]; citrate buffer, pH 3, aqueous buffer, pH 3.0, Citrate buffer, pH after equilibration 3.30, read-out: Solubility Average (n = 2)", "result": 1010, "unit": "µg/mL"}, {"measurement": "solubility", "setting": "[1]; citrate buffer, pH 3, aqueous buffer, pH 3.0, Citrate buffer, pH after equilibration 3.30, read-out: Solubility Trial 1", "result": 1000, "unit": "µg/mL"}, {"measurement": "solubility", "setting": "[1]; citrate buffer, pH 3, aqueous buffer, pH 3.0, Citrate buffer, pH after equilibration 3.30, read-out: Solubility Trial 2", "result": 1030, "unit": "µg/mL"}, {"measurement": "solubility", "setting": "[1]; citrate buffer, pH 4, aqueous buffer, pH 4.0, Citrate buffer, pH after equilibration 4.16, read-out: Solubility Average (n = 2)", "result": 105, "unit": "µg/mL"}, {"measurement": "solubility", "setting": "[1]; citrate buffer, pH 4, aqueous buffer, pH 4.0, Citrate buffer, pH after equilibration 4.16, read-out: Solubility Trial 1", "result": 110, "unit": "µg/mL"}, {"measurement": "solubility", "setting": "[1]; citrate buffer, pH 4, aqueous buffer, pH 4.0, Citrate buffer, pH after equilibration 4.16, read-out: Solubility Trial 2", "result": 100, "unit": "µg/mL"}, {"measurement": "solubility", "setting": "[1]; citrate buffer, pH 5, aqueous buffer, pH 5.0, Citrate buffer, pH after equilibration 4.90, read-out: Solubility Average (n = 2)", "result": 20, "unit": "µg/mL"}, {"measurement": "solubility", "setting": "[1]; citrate buffer, pH 5, aqueous buffer, pH 5.0, Citrate buffer, pH after equilibration 4.90, read-out: Solubility Trial 1", "result": 19, "unit": "µg/mL"}, {"measurement": "solubility", "setting": "[1]; citrate buffer, pH 5, aqueous buffer, pH 5.0, Citrate buffer, pH after equilibration 4.90, read-out: Solubility Trial 2", "result": 21, "unit": "µg/mL"}, {"measurement": "solubility", "setting": "[1]; hydrochloric acid buffer, pH 1.2, simulated gastric fluid, pH 1.2, Hydrochloric acid buffer, pH after equilibration 2.81, read-out: Solubility Average (n = 2)", "result": 25000, "unit": "µg/mL"}, {"measurement": "solubility", "setting": "[1]; hydrochloric acid buffer, pH 1.2, simulated gastric fluid, pH 1.2, Hydrochloric acid buffer, pH after equilibration 2.81, read-out: Solubility Trial 1", "result": 25100, "unit": "µg/mL"}, {"measurement": "solubility", "setting": "[1]; hydrochloric acid buffer, pH 1.2, simulated gastric fluid, pH 1.2, Hydrochloric acid buffer, pH after equilibration 2.81, read-out: Solubility Trial 2", "result": 25000, "unit": "µg/mL"}, {"measurement": "solubility", "setting": "[1]; hydrochloric acid buffer, pH 2, simulated gastric fluid, pH 2.0, Hydrochloric acid buffer, pH after equilibration 2.97, read-out: Solubility Average (n = 2)", "result": 2900, "unit": "µg/mL"}, {"measurement": "solubility", "setting": "[1]; hydrochloric acid buffer, pH 2, simulated gastric fluid, pH 2.0, Hydrochloric acid buffer, pH after equilibration 2.97, read-out: Solubility Trial 1", "result": 2930, "unit": "µg/mL"}, {"measurement": "solubility", "setting": "[1]; hydrochloric acid buffer, pH 2, simulated gastric fluid, pH 2.0, Hydrochloric acid buffer, pH after equilibration 2.97, read-out: Solubility Trial 2", "result": 2880, "unit": "µg/mL"}, {"measurement": "solubility", "setting": "[1]; phosphate buffer, pH 6, aqueous buffer, pH 6.0, Phosphate buffer, pH after equilibration 5.96, read-out: Solubility Average (n = 2)", "result": 12, "unit": "µg/mL"}, {"measurement": "solubility", "setting": "[1]; phosphate buffer, pH 6, aqueous buffer, pH 6.0, Phosphate buffer, pH after equilibration 5.96, read-out: Solubility Trial 1", "result": 12, "unit": "µg/mL"}, {"measurement": "solubility", "setting": "[1]; phosphate buffer, pH 6, aqueous buffer, pH 6.0, Phosphate buffer, pH after equilibration 5.96, read-out: Solubility Trial 2", "result": 12, "unit": "µg/mL"}, {"measurement": "solubility", "setting": "[1]; phosphate buffer, pH 6.8, aqueous buffer, pH 6.8, Phosphate buffer, pH after equilibration 6.79, read-out: Solubility Average (n = 2)", "result": 12, "unit": "µg/mL"}, {"measurement": "solubility", "setting": "[1]; phosphate buffer, pH 6.8, aqueous buffer, pH 6.8, Phosphate buffer, pH after equilibration 6.79, read-out: Solubility Trial 1", "result": 11, "unit": "µg/mL"}, {"measurement": "solubility", "setting": "[1]; phosphate buffer, pH 6.8, aqueous buffer, pH 6.8, Phosphate buffer, pH after equilibration 6.79, read-out: Solubility Trial 2", "result": 13, "unit": "µg/mL"}, {"measurement": "solubility", "setting": "[1]; phosphate buffer, pH 7.4, aqueous buffer, pH 7.4, Phosphate buffer, pH after equilibration 7.32, read-out: Solubility Average (n = 2)", "result": 13, "unit": "µg/mL"}, {"measurement": "solubility", "setting": "[1]; phosphate buffer, pH 7.4, aqueous buffer, pH 7.4, Phosphate buffer, pH after equilibration 7.32, read-out: Solubility Trial 1", "result": 13, "unit": "µg/mL"}, {"measurement": "solubility", "setting": "[1]; phosphate buffer, pH 7.4, aqueous buffer, pH 7.4, Phosphate buffer, pH after equilibration 7.32, read-out: Solubility Trial 2", "result": 13, "unit": "µg/mL"}, {"measurement": "solubility", "setting": "[1]; water / aqueous solution, aqueous buffer, in an acceptable pH range for ophthalmic solution, read-out: water solubility", "result": "10 to 20", "unit": "µg/mL"}, {"measurement": "solubility", "setting": "[1]; water, pH 7.17, water, Water, pH after equilibration 7.17, read-out: Solubility Average (n = 2)", "result": 9, "unit": "µg/mL"}, {"measurement": "solubility", "setting": "[1]; water, pH 7.17, water, Water, pH after equilibration 7.17, read-out: Solubility Trial 1", "result": 9, "unit": "µg/mL"}, {"measurement": "solubility", "setting": "[1]; water, pH 7.17, water, Water, pH after equilibration 7.17, read-out: Solubility Trial 2", "result": 9, "unit": "µg/mL"}, {"measurement": "EW-7197 decomposed by light", "setting": "[2]", "result": "1-5%"}, {"measurement": "EW-7197 dissolved", "setting": "[3]; 4° C.", "result": "about 0.01%"}, {"measurement": "EW-7197 dissolved", "setting": "[3]; 25° C.", "result": "about 0.02%"}, {"measurement": "upper limit of concentration of EW-7197", "setting": "[3]; formulation with 1% tyloxapol, 4% PEG4000, and 2% niacinamide", "result": "about 0.015%"}, {"measurement": "effect of metal ions on thermal stability of EW-7197", "setting": "[4]", "result": "neither aluminum ions nor iron ions affected the thermal stability"}, {"measurement": "solubility of EW-7197", "setting": "[5]", "result": "about 0.125%"}, {"measurement": "expression of collagen, aSMA, fibronectin, 4-hydroxy-2,3-nonenal, and integrins", "setting": "[6]", "result": "decreases"}, {"measurement": "expression of collagen, aSMA, fibronectin, 4-hydroxy-2,3-nonenal, and integrins", "setting": "[7]", "result": "decreases"}, {"measurement": "expression of collagen, aSMA, fibronectin, 4-hydroxy-2,3-nonenal, and integrins", "setting": "[8]", "result": "decreases"}, {"measurement": "expression of collagen, aSMA, fibronectin, 4-hydroxy-2,3-nonenal, and integrins", "setting": "[9]", "result": "decreases"}, {"measurement": "granulation tissue formation", "setting": "[10]", "result": "suppresses"}, {"measurement": "incidence, quality, and tenacity of peritoneal adhesions", "setting": "[11]", "result": "reduces"}, {"measurement": "frequency and stability of adhesion bands", "setting": "[12]", "result": "prevents"}, {"measurement": "clinical symptoms of colitis", "setting": "[13]", "result": "ameliorates"}, {"measurement": "excessive collagen deposition and fibrosis in colitis tissues", "setting": "[13]", "result": "inhibits"}, {"measurement": "overexpression of proinflammatory and profibrotic genes", "setting": "[13]", "result": "suppresses"}, {"measurement": "progression of melanoma", "setting": "[14]; mouse B16 melanoma model, with enhanced CTL responses", "result": "suppress"}, {"measurement": "efficacy compared with LY-2157299", "setting": "[14]; oral EW-7197 2.5 mg/kg once daily vs LY-2157299 75 mg/kg bid", "result": "more effective"}, {"measurement": "Smad/TGF-β signaling, cell migration, invasion, and lung metastasis", "setting": "[15]", "result": "inhibits"}, {"measurement": "CTL activity", "setting": "[16]", "result": "enhanced"}, {"measurement": "Smad/TGF-β signaling, cell migration, invasion, and lung metastasis", "setting": "[16]", "result": "inhibits"}, {"measurement": "paclitaxel-induced epithelial-mesenchymal transition (EMT) and cancer stem-like cells properties", "setting": "[17]", "result": "suppresses"}, {"measurement": "disease relapse and survival", "setting": "[18]", "result": "significantly delays disease relapse and prolongs survival"}, {"measurement": "fibronectin expression", "setting": "[19]; 0.004%, 0.02%, and 0.1%, dose-dependent", "result": "suppresses"}, {"measurement": "decrease in corneal endothelial cells and/or corneal endothelial disorders represented by overexpression of ECM", "setting": "[19]; 0.02% eye drop administration", "result": "effectively suppresses"}]}]}
